Where two headings read alike, the source gives them in different places.
Experiments:
[1] = 250 mg/mL in DMSO, relative to week 0
Description: A 250 mg/mL solution of azacitidine (TEVA Sicor) in DMSO (Merck; Ph. Eur. grade quality) with a water content of less than 0.1 wt.-% was prepared and filled into (moisture proof) vials, which were subsequently sealed using rubber stoppers. […] The amount of azacitidine was analyzed using high performance liquid chromatography (HPLC) and comparing the integral of the azacitidine peak with the integral of a freshly prepared standard solution containing a predetermined amount of azacitidine.
HPLC measurements were carried out using an Agilent 1200 system (or equivalent). For detection, a UV detector (235 nm) was used. A YMC Hydrosphere C18 (250 mm*4.6 mm*[…]) column and a flow rate of 1.0 mL/min and a gradient of aq. pH 7 buffer solution (containing disodium hydrogen phosphate, orthophosphoric acid and ammonium formate)/acetonitrile from 100:0 to 40:60 were employed.

[2] = bulk (non-pharmaceutical grade) substance, purity above 95%, Cayman leaflet; cited from earlier work
[3] = at 25° C. in water; cited from earlier work

| SMILES | % of azacitidine at 25° C. ([1]; water <0.1 wt.-%, day 0) | % of azacitidine at 40° C. ([1]; water <0.1 wt.-%, day 0) | % of azacitidine at 25° C. ([1]; day 7) | % of azacitidine at 40° C. ([1]; day 7) | % of azacitidine at 25° C. ([1]; day 14) | % of azacitidine at 40° C. ([1]; day 14) | % of azacitidine at 25° C. ([1]; day 21) | % of azacitidine at 40° C. ([1]; day 21) | % of azacitidine at 25° C. ([1]; day 28) | % of azacitidine at 40° C. ([1]; day 28) | % of azacitidine at 25° C. ([1]; day 56) | % of azacitidine at 40° C. ([1]; day 56) | % of azacitidine at 25° C. ([1]; day 98) | % of azacitidine at 40° C. ([1]; day 98) | % of azacitidine at 25° C. ([1]; day 182) | % of azacitidine at 40° C. ([1]; day 182) | solubility in bulk DMSO [2] | solubility of azacitidine in water [3] |
| --- | --- | --- | --- | --- | --- | --- | --- | --- | --- | --- | --- | --- | --- | --- | --- | --- | --- | --- |
| Nc1ncn([C@@H]2O[C@H](CO)[C@@H](O)[C@H]2O)c(=O)n1 [azacitidine, 5-azacytidine] | 100% | 100% | 100% | 100% | 100% | 100% | 100% | 100% | 100% | 100% | 100% | 99% | 100% | 96% | 100% | 94% | approximately 30 mg/mL | 13.4 mg/mL |
| Nc1ncn([C@H]2C[C@H](O)[C@@H](CO)O2)c(=O)n1 [decitabine, 5-aza-2′-deoxycytidine] | – | – | – | – | – | – | – | – | – | – | – | – | – | – | – | – | approximately 30 mg/mL | – |

Source: patent publication US20220096507A1, “Parenteral Pharmaceutical Composition Comprising Azacitidine or Decitabine in DMSO” (Sandoz AG, priority 2020, published 2022)
